Results reported in patent publication US12016862B2, “Methods and compositions comprising a KRasG12C inhibitor and a VEGF inhibitor for treating solid tumors” (Genentech, Inc., priority 2020, dated 2024).
“And” between values parts separate entries of the source, which are not always exact repeats. Equal values may be shown once. Read-outs that look alike come from different tables or passages of the source.

Tests used:
[1] = system: NCI-H2122 (KRAS^G12C) NSCLC xenograft; assay: Anti-tumor efficacy in NCI-H2122 NSCLC xenograft tumor model; format: in vivo, nude mice
Procedure: Anti-VEGFA 620.4.1.1 (Mu anti-VEGFA 620.4.1.1; hereafter referred to as anti-VEGF) was a solution in Histidine Buffer ([…], 0.02% Tween 20™, pH5.5). […] The anti-gD isotype control (Hu anti-gD 5B6; hereafter referred to as Isotype Control) was a solution in saline. […] The mice were housed in standard rodent micro-isolator cages and were acclimated to study conditions at least 3 days before tumor cell implantation. Only animals that appeared to be healthy and that were free of obvious abnormalities were used for the study. Human non-small lung carcinoma NCI-H2122 cells were obtained from the American Type Culture Collection (Rockville, MD) and harbor a G12C oncogenic mutation in K-RAS. […] Mice were distributed into four groups based on tumor volumes with n=10 mice per group. […] The isotope control and anti-VEGF antibodies were administered intravenously (IV) at 10 mg/kg for the first dose, and then dosed intraperitoneally (IP) at 5 mg/kg for subsequent doses on a twice weekly (BIW) schedule. Tumor sizes and mouse body weights were recorded twice weekly over the course of the study. […] Fred V. Fowler Co.; Newton, MA) and analyzed using Excel, version 14.2.5 (Microsoft Corporation; Redmond WA). […] A generalized additive mixed model (GAMM) was employed to analyze transformed tumor volumes over time as this approach addresses both repeated measurements from the same study subjects and modest dropouts before study end (Lin et al. Wiley Online Library; 1999; 61:381-400 and Liang Biometrical Journal. Wiley Online Library; 2005; 47:358-68). […] Estimates of efficacy were obtained by calculating the percent difference between the daily average baseline-corrected AUC of the relevant group fits on the original (i.e., untransformed) scale over a common time period.

[2] = system: KRAS^G12C-positive cancer cell lines; assay: Growth inhibition of KRAS^G12C-positive versus KRAS^G12C-negative cancer cell lines; format: cell-based
[3] = Risks associated with administration of study drugs; format: in vivo; settings: Compound 1
Source text: Risks Associated with Compound 1.
Risks Associated with Bevacizumab.

[4] = bevacizumab; cited from earlier work
[5] = number of mice of n=10, same dosing, 21 days

| Compound | % TGI (estimated) ([1]; NCI-H2122 xenografts in nude mice, n=10, Compound 1 50 mg/kg PO QD, anti-VEGF 10 mg/kg IV first dose then 5 mg/kg IP BIW, 21 days, based on AUC, relative to vehicle controls) [%] | mice showing reductions in initial tumor size ([1]; initial tumor response, n=10 per group) [%] | TI (tumor incidence) ([1]; n=10 per group, same dosing, 21 days) | CR (complete responses, 100% decrease in tumor volume) [1, 5] | PR (partial responses, >50% decrease from the initial tumor volume) [1, 5] | anti-tumor effect in words ([1]; single agent treatment) | mice showing increases in tumor volume ([1]; within the first week of treatment, of 10 mice) | selectivity in growth inhibition for KRAS^G12C-positive over KRAS^G12C-negative cancer cell lines [2] | risks associated with administration [3] | risks associated with administration [4] |
| --- | --- | --- | --- | --- | --- | --- | --- | --- | --- | --- |
| C=CC(=O)N1CCN(c2nc(OC[C@@H]3CCCN3C)nc3c(F)c(-c4nc(N)cc(C)c4C(F)(F)F)c(Cl)cc23)[C@@H](C)C1 (atropisomer, axis not shown) [Compound 1] | 98 | 50 | 10/10 | 0 | 2/10 and 2 | tumor stasis | 5/10 | over 20,000 fold | diarrhea, nausea, vomiting, oral mucosal irritation, minimal to mild transaminase elevation, and phototoxicity |  |
| Bevacizumab: recombinant humanized anti-VEGF monoclonal antibody generated according to Presta et al. |  |  |  |  |  |  |  |  |  | gastrointestinal perforations, surgery and wound healing complications, hemorrhage |
